Experimental data taken from ChEMBL document CHEMBL1201862, “PubChem BioAssay data set” (2004).
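Exposure lasted 48 hours, with cells grown in 96-well plates and compounds tested at five concentrations. Abbreviation: GI50, concentration required for 50% inhibition of growth.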 Activity calls are given as the source filed them. Cut-off read from the data, not from the text of the source: active = GI50 up to about 1.1 µM and inactive = higher.

How the values were obtained:
Experiment in all cases: NCI anticancer screen, dose series, 48 h
HCT-116 = tested on: HCT-116
HL-60 = tested on: HL-60
A498 = tested on: A498
UACC-257 = tested on: UACC-257
SNB-75 = tested on: SNB-75
OVCAR-3 = tested on: OVCAR-3
KM12 = tested on: KM12
EKVX = tested on: EKVX
RPMI-8226 = tested on: RPMI-8226
HT-29 = tested on: HT-29
RXF 393 = tested on: RXF 393
OVCAR-5 = tested on: OVCAR-5
CCRF-CEM = tested on: CCRF-CEM
LOX IMVI = tested on: LOX IMVI
SK-MEL-2 = tested on: SK-MEL-2
IGROV-1 = tested on: IGROV-1
ACHN = tested on: ACHN
HCT-15 = tested on: HCT-15
NCI-H522 = tested on: NCI-H522

SMILES	GI50 (HCT-116)	GI50 (HL-60)	GI50 (A498)	GI50 (UACC-257)	GI50 (SNB-75)	GI50 (OVCAR-3)	GI50 (KM12)	GI50 (EKVX)	GI50 (RPMI-8226)	GI50 (HT-29)	GI50 (RXF 393)	GI50 (OVCAR-5)	GI50 (CCRF-CEM)	GI50 (LOX IMVI)	GI50 (SK-MEL-2)	GI50 (IGROV-1)	GI50 (ACHN)	GI50 (HCT-15) [µM]	GI50 (NCI-H522)
CC(=O)O[C@H]1CCC2[C@@H]3CCC4C(=O)c5oncc5C[C@]4(C)C3CC[C@@]21C (some centres undefined)	> 10 µM (inactive)	> 100 µM (inactive)	21.7 µM (inactive)	> 100 µM (inactive)	50.2 µM (inactive)	> 100 µM (inactive)	> 100 µM (inactive)	22.4 µM (inactive)	> 100 µM (inactive)	> 100 µM (inactive)	> 100 µM (inactive)	> 100 µM (inactive)	> 100 µM (inactive)	28 µM (inactive)	> 100 µM (inactive)	> 100 µM (inactive)	63 µM (inactive)	> 100	–
O=C(c1ccccc1)[C@@H]1C[C@H](Sc2ccccc2)c2cc(Cl)ccc2N1	23.1 µM (inactive)	–	11.5 µM (inactive)	17.1 µM (inactive)	18.8 µM (inactive)	23 µM (inactive)	57.5 µM (inactive)	10 µM (inactive)	23.7 µM (inactive)	22.2 µM (inactive)	6.64 µM (inactive)	37.6 µM (inactive)	–	23.5 µM (inactive)	31.8 µM (inactive)	32.3 µM (inactive)	29.2 µM (inactive)	25.4	22.1 µM (inactive)
OCCCc1cnco1	> 100 µM (inactive)	> 100 µM (inactive)	> 100 µM (inactive)	> 100 µM (inactive)	> 100 µM (inactive)	> 100 µM (inactive)	> 100 µM (inactive)	> 100 µM (inactive)	> 100 µM (inactive)	> 100 µM (inactive)	> 100 µM (inactive)	> 100 µM (inactive)	> 100 µM (inactive)	> 100 µM (inactive)	–	> 100 µM (inactive)	> 100 µM (inactive)	> 100	–
CCOC(=O)Nc1ccc(S(=O)(=O)I)cc1.CCOC(=O)Nc1ccc(S(=O)(=O)I)cc1.CNC(=O)N=O.NC(=O)OCCCl	> 100 µM (inactive)	45.3 µM (inactive)	> 100 µM (inactive)	74.6 µM (inactive)	21.9 µM (inactive)	–	> 100 µM (inactive)	–	–	69 µM (inactive)	–	–	74.8 µM (inactive)	> 100 µM (inactive)	43.6 µM (inactive)	> 100 µM (inactive)	> 100 µM (inactive)	70.8	–
CC(=O)NC(CCCCNC(=O)OCc1ccccc1)C(=O)NCc1ccccc1 (centres undefined)	> 100 µM (inactive)	–	> 100 µM (inactive)	> 100 µM (inactive)	31.7 µM (inactive)	> 100 µM (inactive)	> 100 µM (inactive)	> 100 µM (inactive)	> 100 µM (inactive)	> 100 µM (inactive)	> 100 µM (inactive)	> 100 µM (inactive)	> 100 µM (inactive)	> 100 µM (inactive)	> 100 µM (inactive)	> 100 µM (inactive)	> 100 µM (inactive)	> 100	> 100 µM (inactive)
C=C(CCCO)[C@@H]1CC[C@@](C)(O)[C@H]1C	> 100 µM (inactive)	–	–	> 100 µM (inactive)	33.1 µM (inactive)	> 100 µM (inactive)	> 100 µM (inactive)	> 100 µM (inactive)	> 100 µM (inactive)	> 100 µM (inactive)	> 100 µM (inactive)	> 100 µM (inactive)	–	–	> 100 µM (inactive)	> 100 µM (inactive)	> 100 µM (inactive)	> 100	> 100 µM (inactive)
Nc1ccc(C(=O)NN2C(=O)C(Cl)C2c2ccccc2)cc1 (centres undefined)	> 100 µM (inactive)	–	> 100 µM (inactive)	> 100 µM (inactive)	> 100 µM (inactive)	> 100 µM (inactive)	> 100 µM (inactive)	> 100 µM (inactive)	> 100 µM (inactive)	> 100 µM (inactive)	–	> 100 µM (inactive)	> 100 µM (inactive)	> 100 µM (inactive)	> 100 µM (inactive)	> 100 µM (inactive)	> 100 µM (inactive)	> 100	> 100 µM (inactive)
O=C(/C=C/c1ccccc1F)C(c1ccccc1)c1ccccc1	2.24 µM (inactive)	3.07 µM (inactive)	–	4.82 µM (inactive)	4.76 µM (inactive)	3.97 µM (inactive)	3.95 µM (inactive)	11.2 µM (inactive)	3.53 µM (inactive)	2.75 µM (inactive)	–	–	2.31 µM (inactive)	1.71 µM (inactive)	2.51 µM (inactive)	10.8 µM (inactive)	2.56 µM (inactive)	4.31	2.62 µM (inactive)
O=C(Cc1nc2ccccc2o1)C(=O)Nc1ccc(Cl)cc1Cl	> 100 µM (inactive)	–	> 100 µM (inactive)	> 100 µM (inactive)	49.2 µM (inactive)	> 100 µM (inactive)	–	> 100 µM (inactive)	> 100 µM (inactive)	> 100 µM (inactive)	> 100 µM (inactive)	> 100 µM (inactive)	–	–	> 100 µM (inactive)	> 100 µM (inactive)	> 100 µM (inactive)	> 100	–
O=C1CCCCC1CN1CCCC1 (centres undefined)	> 100 µM (inactive)	> 10 µM (inactive)	> 100 µM (inactive)	> 100 µM (inactive)	> 100 µM (inactive)	> 100 µM (inactive)	> 100 µM (inactive)	> 100 µM (inactive)	84.3 µM (inactive)	> 100 µM (inactive)	–	> 100 µM (inactive)	65.6 µM (inactive)	> 100 µM (inactive)	> 100 µM (inactive)	> 100 µM (inactive)	> 100 µM (inactive)	> 100	0.178 µM (active)
CN(C)c1ccc(N=O)c(O)c1.CN(C)c1ccc(N=O)c(O)c1.[SiH4]	6.5 µM (inactive)	4.41 µM (inactive)	21.3 µM (inactive)	14 µM (inactive)	12.7 µM (inactive)	3.71 µM (inactive)	14.6 µM (inactive)	15.3 µM (inactive)	31.6 µM (inactive)	6.67 µM (inactive)	–	24 µM (inactive)	4.35 µM (inactive)	5.92 µM (inactive)	–	20.9 µM (inactive)	2.67 µM (inactive)	–	1.53 µM (inactive)
Cc1sc(N/N=C2\C(=O)Nc3ccccc32)nc1-c1ccccc1	12.4 µM (inactive)	4.23 µM (inactive)	15.1 µM (inactive)	21.4 µM (inactive)	19.7 µM (inactive)	12.6 µM (inactive)	13.6 µM (inactive)	11.1 µM (inactive)	–	20.3 µM (inactive)	15.8 µM (inactive)	20.9 µM (inactive)	–	12.6 µM (inactive)	18.7 µM (inactive)	9.48 µM (inactive)	15.3 µM (inactive)	9.38	–
COc1cc2c(cc1OC)C(C#N)(Cc1ccccc1)N(C(=O)c1ccccc1)C=C2 (centres undefined)	50.9 µM (inactive)	36.4 µM (inactive)	–	50.6 µM (inactive)	70.6 µM (inactive)	> 100 µM (inactive)	60.7 µM (inactive)	39.6 µM (inactive)	35.5 µM (inactive)	60.8 µM (inactive)	24.4 µM (inactive)	> 100 µM (inactive)	35.6 µM (inactive)	> 100 µM (inactive)	> 100 µM (inactive)	> 100 µM (inactive)	82.8 µM (inactive)	38.8	33.9 µM (inactive)
COC(=O)C1=C(SC)SC2(C(=O)OC)C3C=C(C)C4C(N13)C42C(=O)OC (centres undefined)	> 100 µM (inactive)	> 100 µM (inactive)	–	> 100 µM (inactive)	> 100 µM (inactive)	> 100 µM (inactive)	–	> 100 µM (inactive)	> 100 µM (inactive)	> 100 µM (inactive)	> 100 µM (inactive)	> 100 µM (inactive)	> 100 µM (inactive)	> 100 µM (inactive)	> 100 µM (inactive)	> 100 µM (inactive)	> 100 µM (inactive)	> 100	> 100 µM (inactive)
COc1cc(/C=C2\C(=O)N(C(=O)Cc3ccccc3)N=C2C)cc(OC)c1OC	> 100 µM (inactive)	> 100 µM (inactive)	–	> 100 µM (inactive)	> 100 µM (inactive)	> 100 µM (inactive)	> 100 µM (inactive)	> 100 µM (inactive)	> 100 µM (inactive)	> 100 µM (inactive)	–	> 100 µM (inactive)	> 100 µM (inactive)	> 100 µM (inactive)	> 100 µM (inactive)	–	> 100 µM (inactive)	> 100	> 100 µM (inactive)
CCSc1nc(-c2ccc(OC)cc2)c(C#N)c(=O)n1C1OCC(OC(C)=O)C(OC(C)=O)C1OC(C)=O (centres undefined)	> 100 µM (inactive)	–	> 100 µM (inactive)	> 100 µM (inactive)	65.6 µM (inactive)	–	> 100 µM (inactive)	> 100 µM (inactive)	78.5 µM (inactive)	> 100 µM (inactive)	> 100 µM (inactive)	> 100 µM (inactive)	–	–	> 100 µM (inactive)	77.8 µM (inactive)	> 100 µM (inactive)	> 100	92 µM (inactive)
Cc1ccc(Sc2cc([N+](=O)[O-])cc(Sc3ccc(C)cc3)c2Sc2ccc(C)cc2)cc1	> 100 µM (inactive)	> 100 µM (inactive)	> 100 µM (inactive)	> 100 µM (inactive)	53.5 µM (inactive)	> 100 µM (inactive)	> 100 µM (inactive)	> 100 µM (inactive)	> 100 µM (inactive)	> 100 µM (inactive)	36 µM (inactive)	> 100 µM (inactive)	27.2 µM (inactive)	> 100 µM (inactive)	> 100 µM (inactive)	> 100 µM (inactive)	> 100 µM (inactive)	> 100	–
